Measurements taken from patent publication EP4768487A1, “FUSED LACTAM RING COMPOUND AND USE THEREOF” (Chengdu Zenitar Biomedical Technology Co., Ltd., priority 2023, dated 2025).

Tests used:
[1] = system: BRCA-mutated MDA-MB-436 cells; assay: Anti-proliferative activity against cells (CCK8): MDA-MB-436; type: cell-based; settings: Homo sapiens, 72 h + 96 h culture
[2] = target: T1, PARP-5A (Homo sapiens, UniProt O95271); assay: biochemical
T1 sequence (O95271 1-1327): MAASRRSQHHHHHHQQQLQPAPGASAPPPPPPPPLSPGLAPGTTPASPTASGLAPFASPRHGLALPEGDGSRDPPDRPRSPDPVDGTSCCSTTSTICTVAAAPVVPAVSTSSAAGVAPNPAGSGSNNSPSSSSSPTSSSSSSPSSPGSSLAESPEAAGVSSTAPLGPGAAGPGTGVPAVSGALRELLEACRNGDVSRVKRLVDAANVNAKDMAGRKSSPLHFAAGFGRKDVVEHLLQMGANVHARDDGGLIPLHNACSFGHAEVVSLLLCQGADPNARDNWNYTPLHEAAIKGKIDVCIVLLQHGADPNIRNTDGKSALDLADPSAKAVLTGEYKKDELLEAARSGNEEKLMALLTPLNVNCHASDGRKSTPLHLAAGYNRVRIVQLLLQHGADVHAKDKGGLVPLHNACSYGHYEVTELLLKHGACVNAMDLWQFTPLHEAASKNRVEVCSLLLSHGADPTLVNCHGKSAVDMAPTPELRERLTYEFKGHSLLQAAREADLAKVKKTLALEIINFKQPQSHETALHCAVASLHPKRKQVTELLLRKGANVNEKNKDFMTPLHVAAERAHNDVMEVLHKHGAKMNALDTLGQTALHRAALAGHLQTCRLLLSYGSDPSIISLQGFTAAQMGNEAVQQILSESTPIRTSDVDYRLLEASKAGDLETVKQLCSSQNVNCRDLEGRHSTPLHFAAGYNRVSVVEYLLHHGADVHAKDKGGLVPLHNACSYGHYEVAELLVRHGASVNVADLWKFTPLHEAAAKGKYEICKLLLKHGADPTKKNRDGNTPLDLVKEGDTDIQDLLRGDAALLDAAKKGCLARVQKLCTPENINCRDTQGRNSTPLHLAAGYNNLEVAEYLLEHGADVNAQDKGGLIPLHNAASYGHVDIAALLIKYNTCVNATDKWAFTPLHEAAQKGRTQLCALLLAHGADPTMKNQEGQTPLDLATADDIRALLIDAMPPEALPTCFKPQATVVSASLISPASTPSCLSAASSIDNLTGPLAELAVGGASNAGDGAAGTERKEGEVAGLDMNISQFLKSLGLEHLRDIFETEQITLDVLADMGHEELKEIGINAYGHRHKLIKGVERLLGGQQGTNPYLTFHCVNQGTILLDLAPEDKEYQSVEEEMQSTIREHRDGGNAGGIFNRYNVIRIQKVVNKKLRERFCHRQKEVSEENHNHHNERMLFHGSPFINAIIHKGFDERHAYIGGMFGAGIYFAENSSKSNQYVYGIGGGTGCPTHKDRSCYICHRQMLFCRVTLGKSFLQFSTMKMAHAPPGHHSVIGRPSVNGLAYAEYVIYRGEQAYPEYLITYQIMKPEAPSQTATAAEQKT

[3] = target: T2, PARP-7 (Homo sapiens, UniProt Q7Z3E1); assay: Assay for enzymatic selectivity for PARP family: PARP-7
T2 sequence (Q7Z3E1 1-657): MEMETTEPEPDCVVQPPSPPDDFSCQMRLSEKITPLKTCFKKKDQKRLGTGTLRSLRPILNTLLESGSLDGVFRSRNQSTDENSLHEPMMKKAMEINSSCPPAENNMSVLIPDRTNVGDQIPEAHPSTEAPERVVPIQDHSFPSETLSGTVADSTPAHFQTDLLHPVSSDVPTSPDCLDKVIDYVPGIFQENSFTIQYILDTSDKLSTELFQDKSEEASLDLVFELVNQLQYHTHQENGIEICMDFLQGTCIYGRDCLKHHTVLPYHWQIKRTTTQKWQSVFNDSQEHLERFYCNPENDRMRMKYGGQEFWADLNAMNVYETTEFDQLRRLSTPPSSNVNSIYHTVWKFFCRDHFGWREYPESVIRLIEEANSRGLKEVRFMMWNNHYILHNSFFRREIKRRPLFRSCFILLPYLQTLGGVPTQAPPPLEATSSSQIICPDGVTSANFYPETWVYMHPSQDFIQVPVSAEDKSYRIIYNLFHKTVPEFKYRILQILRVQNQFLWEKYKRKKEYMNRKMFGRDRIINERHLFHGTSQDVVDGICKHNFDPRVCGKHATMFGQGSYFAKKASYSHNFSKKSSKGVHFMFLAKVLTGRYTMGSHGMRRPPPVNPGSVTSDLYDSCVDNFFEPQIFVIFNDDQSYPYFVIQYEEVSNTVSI

[4] = target: T3, PARP-12 (Homo sapiens, UniProt Q9H0J9); assay: Assay for enzymatic selectivity for PARP family: PARP-12
T3 sequence (Q9H0J9 1-701): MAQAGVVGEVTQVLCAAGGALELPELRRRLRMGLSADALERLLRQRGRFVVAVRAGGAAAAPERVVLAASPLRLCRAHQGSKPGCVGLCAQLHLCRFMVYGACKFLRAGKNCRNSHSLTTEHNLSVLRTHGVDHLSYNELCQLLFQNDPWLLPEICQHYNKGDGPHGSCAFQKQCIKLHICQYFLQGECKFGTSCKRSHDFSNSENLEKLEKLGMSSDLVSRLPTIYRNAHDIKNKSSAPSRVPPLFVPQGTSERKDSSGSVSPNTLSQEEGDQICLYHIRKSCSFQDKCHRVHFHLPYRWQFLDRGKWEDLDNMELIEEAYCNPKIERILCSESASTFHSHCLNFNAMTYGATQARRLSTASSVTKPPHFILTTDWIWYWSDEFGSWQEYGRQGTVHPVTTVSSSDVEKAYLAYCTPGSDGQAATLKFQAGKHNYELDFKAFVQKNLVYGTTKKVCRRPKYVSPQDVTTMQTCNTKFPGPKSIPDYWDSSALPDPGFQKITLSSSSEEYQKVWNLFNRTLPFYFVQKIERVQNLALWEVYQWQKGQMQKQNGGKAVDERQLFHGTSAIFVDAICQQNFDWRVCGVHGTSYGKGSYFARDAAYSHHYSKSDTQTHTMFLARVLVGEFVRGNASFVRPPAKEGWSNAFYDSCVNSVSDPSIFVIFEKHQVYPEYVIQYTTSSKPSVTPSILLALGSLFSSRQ

| IC50 [1] [nM] | Structure (SMILES) | IC50 [2] [nM] | IC50 [3] [nM] | IC50 [4] [nM] |
| --- | --- | --- | --- | --- |
| 0.25 | CCc1cc2c([nH]c1=O)CC(CN1CCN(c3ccc(C(=O)NC)nc3F)CC1)OC2 (centres unmarked) [Compound 2, 5-(4-((3-Ethyl-2-oxo-1,5,7,8-tetrahydro-2H-pyrano[4,3-b]pyridin-7-yl)methyl)piperazin-1-yl)-6-fluoro-N-methyl picolinamide] | 975 | > 10000 | 1990 |
| – | CNC(=O)c1ccc(N2CCN(C[C@H]3CCc4nc(C)c(=O)[nH]c4C3)CC2)c(F)n1 [Example 45, (S)-6-Fluoro-N-methyl-5-(4-((2-methyl-3-oxo-3,4,5,6,7,8-hexahydroquinoxaline-6-yl)methyl)piperazin-1-yl)picolinamide] | 1930 | 5990 | 862 |
| 7 | CNC(=O)c1ccc(N2CCN(CC3Cc4[nH]c(=O)c(C)cc4CO3)CC2)c(Cl)n1 (centres unmarked) [Example 74, 6-Chloro-N-methyl-5-(4-((3-methyl-2-oxo-1,5,7,8-tetrahydro-2H-pyrano[4,3-b]pyridin-7-yl)methyl)piperazin-1-yl)picolinamide] | – | – | – |
